Experiments:
[1] = LD50 acute toxicity, ddy mice, single abdominal injection; conditions: mouse, in vivo, ip, 5 ddy mice, 14 days observation, Behrens-Koerber's method
Text: (§1) As used herein, the term "LD50 " denotes the acute toxicity. The term "ED50 " denotes the administered amount needed for reducing the volume of Sarcoma 180 solid tumours in animals to 50% of the corresponding tumour volume in control (untreated) animals. The term "WBC4000 " denotes the minimum dose of the drug needed to reduce the number of peripheral leucocytes to 4000/mm^3. A greater TI value results in a broader tolerance to the drug, which is advantageous for higher anti-tumour activity and decreased toxicity. The term "T" used herein denotes the average survival days of the test animals administered with the test compound. The term "C" denotes the average survival days of the control (untreated) animals. The term "OPD" denotes the dose of the drug resulting in the highest survival ratio. The term "ILS30 " denotes a 30% increase of life-span.
LD50, ED50 and WBC4000 were respectively determined as follows:
Each animal of the test group, consisting of 5 ddy mice, was administered once with a test compound by abdominal injection. […] To determine the LD50 value, Behrens-Koerber's method was applied.

[2] = system: lymphocytic Leukemia P-388; test: Anti-tumour activity against lymphocytic Leukemia P-388 in mice; type: in vivo, mouse, female of CDF strain; conditions: for (ILSmax)c: (ILSmax of test compound)/(ILSmax of mitomycin C), ILS=(T-C)/C×100; for (TI)c: (TI of test compound)/(TI of mitomycin C), TI = OPD/dose which results in ILS30; for ED (optimal dose, highest survival) / ED (30% increase of life-span): Mus musculus, P388, ip, i.p. 24 h after implantation; for ED (optimal dose, highest survival): dose resulting in the highest survival ratio, 30 days, read-out: OPD; for ED (30% increase of life-span): read-out: Dose needed to give ILS30
Text: Also, their therapeutic indexes, expressed by the formula:
TI=(OPD)/(dose which results in ILS30),
against lymphocytic Leukemia P-388 and the maximum increased life spans (ILSmax), defined by the formula: […]
as §1
The experiment was carried out in the following manner. 1×10^6 lymphocytic Leukemia P-388 tumour cells were abdominally implanted into each mouse of a group consisting of 5 mice (body weight about 22 g; female of CDF strain). 24 hours after implantation, a physiological saline solution (0.2 ml) containing the test compound with or without addition of Tween 80 was abdominally given to the test animal.
Table 7 indicates anti-tumour activities of selected Compounds (I) against lyphocytic Leukemia P-388.

Sarcoma 180 solid tumour = test: ED50 against Sarcoma 180 solid tumour implanted in mice; type: in vivo, male mouse (ddy strain); conditions: for (CI)c: (CI of test compound)/(CI of mitomycin C), CI = LD50/ED50; for ED50: Mus musculus, Sarcoma-180, iv, 168 h, i.v. (tail vein) 24 h after implantation, tumour volume at 7 days, dose for T/C of 0.5
Text: With regard to the so-called chemotherapeutic index viz. the CI value against sarcoma 180 solid tumour, expressed by the formula: […]
as §1
the term (CI)c denotes (CI of the test compound)/(CI of mitomycin C), and
5×10^6 sarcoma 180 solid tumor cells were abdominally implanted into ddy mice. 7 days after this, ascites cells were sampled. The cells were washed once with a sterilized physiological saline and were used to prepare a cell suspension containing 5×10^7 cells per ml of a sterilized physiological saline. On each occasion, 0.1 ml of the cell suspension was subcutaneously implanted under the skin of the right armpit of a male mouse (ddy strain; body weight 20±2 g). The test compound which was dissolved in a physiological saline with or without addition of Tween 80 was injected into the tail vein of each animal of a group consisting of 5 mice at a dose of 0.1-0.2 ml 24 hours after the implantation of the tumor cells.
The anti-tumor activity was determined in the following manner:
7 days after the implantation, the major axis (a) and the minor axis (b) of the tumour were measured to calculate a value of (a×b^2)/2 which corresponds to the volume of the tumour. The antitumour activity was expressed by the ratio of the volume of the tumour (T) of the group of animals administered with the test compound to the corresponding volume of tumours (C) of the untreated animals.
On graph paper, T/C was plotted on the ordinate using an arithmetic scale and the administered amount of test compound was plotted on the abscissa using a logarithmic scale. The relationship between the dose and T/C was shown by a straight line determined by the method of least squares, from which ED50 viz. a dose corresponding to T/C of 0.5 was obtained.

| SMILES | LD50 at 336 h [1] [mg/kg] | (ILSmax)c [2] | (TI)c [2] | ED (optimal dose, highest survival) [2] [mg/kg] | ED (30% increase of life-span) [2] [mg/kg] | (CI)c (Sarcoma 180 solid tumour) | ED50 (Sarcoma 180 solid tumour) [mg/kg] |
| --- | --- | --- | --- | --- | --- | --- | --- |
| CCN(CC)C(=O)SCCNC1=C(C)C(=O)C2=C(C1=O)[C@@H](COC(N)=O)[C@@]1(OC)[C@H]3N[C@H]3CN21 [Compound 4, 7-N--(2-diethylaminocarbonylthioethyl)mitomycin C] | 45 | > 1.21 | 1.18 | 25 | 2.02 | 1.64 | 13.3 |
| COC(=O)[C@@H]1CCCN1C(=O)SCCNC1=C(C)C(=O)C2=C(C1=O)[C@@H](COC(N)=O)[C@@]1(OC)[C@H]3N[C@H]3CN21 [Compound 6, 7-N--[2-((S)--2-methoxycarbonylpyrrolidino)carbonylthioethyl]mitomycin C] | > 50 | > 1.82 | 9.09 | 100 | 1.1 | 1.77 | 10.1 |
| CCCNC(=O)SCCNC1=C(C)C(=O)C2=C(C1=O)[C@@H](COC(N)=O)[C@@]1(OC)[C@H]3N[C@H]3CN21 [Compound 27, 7-N--(2-n-propylaminocarbonylthioethyl)mitomycin C] | 37.5 | 1.84 | 3.11 | 25 | 0.67 | 1.33 | 11.1 |
| CO[C@@]12[C@H](COC(N)=O)C3=C(C(=O)C(C)=C(NCCSC(=O)NC(C)C)C3=O)N1C[C@@H]1N[C@@H]12 [Compound 7, 7-N--(2-isopropylaminocarbonylthioethyl)mitomycin C] | 45 | > 1.76 | 2.48 | 12.5 | 0.77 | 2.29 | 7 |
| CO[C@@]12[C@H](COC(N)=O)C3=C(C(=O)C(C)=C(NCCSC(=O)NC(C)(C)C)C3=O)N1C[C@@H]1N[C@@H]12 [Compound 5, 7-N--(2-t-butylaminocarbonylthioethyl)mitomicin C] | 30 | > 1.17 | 1.80 | 25 | 1.32 | 1.22 | 8.8 |
| COC(=O)[C@H]1CCCN1C(=O)SCCNC1=C(C)C(=O)C2=C(C1=O)[C@@H](COC(N)=O)[C@@]1(OC)[C@H]3N[C@H]3CN21 [Compound 32, 7-N--[2-((S)--2-methoxycarbonylpyrrolidino)carbonylthioethyl]mitomycin C] | 67.5 | 1.40 | 2.14 | 37.5 | 1.67 | 1.48 | 17.9 |
| CCC(CC)NC(=O)SCCNC1=C(C)C(=O)C2=C(C1=O)[C@@H](COC(N)=O)[C@@]1(OC)[C@H]3N[C@H]3CN21 [Compound 11, 7-N--[2-(1-ethylpropyl)aminocarbonylthioethyl]mitomycin C] | 45 | > 1.47 | 1.86 | 25 | 1.04 | 1.40 | 11.1 |
| CO[C@@]12[C@H](COC(N)=O)C3=C(C(=O)C(C)=C(NCCSC(=O)NC4CCN(Cc5ccccc5)CC4)C3=O)N1C[C@@H]1N[C@@H]12 [Compound 12, 7-N--[2-(1-benzylpiperidine-4-yl)aminocarbonylthioethyl]mitomycin C] | 37.5 | > 1.47 | > 1.10 | 12.5 | < 0.78 | 1.61 | 8.1 |
| CO[C@@]12[C@H](COC(N)=O)C3=C(C(=O)C(C)=C(NCCSC(=O)N4CCC[C@H]4C(=O)NCc4ccccc4)C3=O)N1C[C@@H]1N[C@@H]12 [Compound 14, 7-N--[2-((S)--2-benzylaminocarbonylpyrrolidino)-carbonylthioethyl]mitomycin C] | 75 | 1.44 | 0.93 | 50 | 3.46 | 2.23 | 13.6 |
| CO[C@@]12[C@H](COC(N)=O)C3=C(C(=O)C(C)=C(NCCSC(=O)NC(COCc4ccccc4)C(C)C)C3=O)N1C[C@@H]1N[C@@H]12 (stereo partly shown) [Compound 13] | 26.3 | > 2.57 | 1.96 | 7.5 | 0.33 | 2.01 | 4.5 |
| CCC(C)NC(=O)SCCNC1=C(C)C(=O)C2=C(C1=O)[C@@H](COC(N)=O)[C@@]1(OC)[C@H]3N[C@H]3CN21 (stereo partly shown) [Compound 30, 7-N--(2-sec-butylaminocarbonylthioethyl)mitomycin C] | 37.5 | 1.60 | 3.20 | 25 | 0.65 | 1.53 | 9.6 |
| CO[C@@]12[C@H](COC(N)=O)C3=C(C(=O)C(C)=C(NCCSC(=O)NCc4ccccc4)C3=O)N1C[C@@H]1N[C@@H]12 [Compound 22, 7-N--(2-benzylaminocarbonylthioethyl)mitomycin C] | 37.5 | 1.43 | 3.36 | 25 | 0.62 | 1.44 | 10.2 |
| CNC(=O)SCCNC1=C(C)C(=O)C2=C(C1=O)[C@@H](COC(N)=O)[C@@]1(OC)[C@H]3N[C@H]3CN21 [Compound 1, 7-N--(2-methylaminocarbonylthioethyl)mitomycin C] | > 100 | 1.44 | 1.33 | 25 | 0.78 | > 1.39 | 25.8 |
| CNC(=O)[C@@H]1CCCN1C(=O)SCCNC1=C(C)C(=O)C2=C(C1=O)[C@@H](COC(N)=O)[C@@]1(OC)[C@H]3N[C@H]3CN21 [Compound 17, 7-N--[2-((S)--2-methylaminocarbonylpyrrolidino)-carbonylthioethyl]mitomycin C] | 75 |  |  |  |  | 1.32 | 21.7 |
| COC(=O)[C@@H]1CC(O)CN1C(=O)SCCNC1=C(C)C(=O)C2=C(C1=O)[C@@H](COC(N)=O)[C@@]1(OC)[C@H]3N[C@H]3CN21 (stereo partly drawn) [Compound 44, 7-N--[2-((S)--2-methoxycarbonyl-(SR)-4-hydroxypyrrolidino)carbonylthioethyl]mitomycin C] | > 100 |  |  |  |  | > 1.85 | 27.5 |
| CO[C@@]12[C@H](COC(N)=O)C3=C(C(=O)C(C)=C(NCCSC(=O)NC(CC(=O)OCc4ccccc4)c4ccccc4)C3=O)N1C[C@@H]1N[C@@H]12 (stereo partly shown) [Compound 10, 7-N--[2-(1-phenyl-2-benzyloxycarbonylethyl)aminocarbonylthioethyl]mitomycin C] | > 100 |  |  |  |  | > 0.43 | 95.5 |
| CO[C@@]12[C@H](COC(N)=O)C3=C(C(=O)C(C)=C(NCCSC(=O)NCCC(=O)OCc4ccccc4)C3=O)N1C[C@@H]1N[C@@H]12 [Compound 3, 7-N--[2-(2-benzyloxycarbonylethyl)aminocarbonylthioethyl]mitomycin C] | > 100 |  |  |  |  | > 0.89 | 39.6 |

Reference: patent US4863935A, “Mitomycin compounds having useful anti-tumor activity” (priority 1986, dated 1989)
